Data on three compounds can be found in patent publication US11058654B2, “Compositions and methods for the treatment of hemoglobinopathies and thalassemias” (AXCELLA HEALTH INC., priority 2018, dated 2021).

The experiment relates to TNFa. The experiment is described as follows: LPS-induced TNFa secretion in primary human PBMC-derived macrophages (ELISA). The class given is cell-based. The settings on record: for TNFa Measurements Mean (baseline subtracted): LPS; for effect on LPS-induced TNFa secretion: in words. Here is the method: Unpurified buffy coats (Research Blood Components) were carefully poured into 50 mL centrifuge tubes and diluted with room temperature Dulbecco's Phosphate Buffered Saline (dPBS) with Calcium and Magnesium (Gibco). Diluted buffy coats were further divided into four total 50 mL centrifuge tubes at 20 mL per tube. Lymphocyte Separation Medium (Corning) was carefully pipetted to the bottom of each centrifuge tube. Mixtures were centrifuged at 850× g for 32 minutes at 20° C. with 0 deceleration and acceleration.
The PBMC layer was separated from other components after centrifugation and added to new 50 mL centrifuge tube containing 25 mL dPBS. Total volume was brought up to 50 mL with dPBS and centrifuged at 600× g for 10 minutes at 20° C. with acceleration of 9, deceleration of 5. Supernatant was carefully removed from cell pellets. The cell pellets were resuspended using 10 mL dPBS. Total volume was then brought up to 50 mL using dPBS and centrifuged at 450× g for 5 min at 20° C. with acceleration of 9, deceleration of 9. The supernatant removal and cell pellet resuspension was repeated again.
The supernatant was then carefully removed from cell pellets. Cell pellets were resuspended in 10 mL dPBS without calcium or magnesium and filtered through a 70 uM cell strainer. The total PBMC number was determined using a Cellometer K2 automated cell counter. A total of 5E6 cells were saved for flow cytometric analysis. Remaining cells were centrifuged at 490× g for 5 minutes at 20° C. with acceleration of 9, deceleration of 9.
CD14+ cells were selected using EasySep™ Human CD14 Positive Selection Kit II ([…] Technologies). Cells were resuspended in cold EasySep™ Buffer ([…] Technologies) at 1×10^8 cells/mL. A total of 100 uL/mL EasySep™ Human CD14 Positive Selection Cocktail II was added to the cell suspension, mixed, and incubated at room temperature for 10 minutes. A total of 100 uL/mL RapidSpheres were added to the mixture and incubated at room temperature for 3 minutes after mixing, then RoboSep buffer was added to bring up the total volume to 10 mL. The mixture in a 15 mL tube was placed in magnet and incubated at room temperature for 3 minutes. Supernatant was discarded and 10 mL fresh EasySep™ buffer was added to 15 mL tube. The addition of RoboSep buffer, mixing, and discarding of supernatant was repeated two more times.
Negative and positive fractions were centrifuged at 490× g for 5 minutes at 20° C. with acceleration of 9, deceleration of 9, and resuspended in DMEM (Gibco) and 10% Heat Inactivated Fetal Bovine Serum (Atlanta Bio) and Penicillin/Streptomycin. Cells were counted and centrifuged again at […] for 5 minutes at 20° C. with acceleration of 9, deceleration of 9. After centrifugation, cell were resuspended in DMEM (Gibco) and 10% Heat Inactivated Fetal Bovine Serum (Atlanta Bio) and Penicillin/Streptomycin containing 500 U/mL […] and plated at 1-2×10^6 cells/mL on 10 cm tissue culture plates. Cells were kept in 37° C., 5% CO2 in between feedings/harvest.
Cells were fed every 3-4 days by removing media and unattached cells, centrifuging at 490× g for 5 minutes at 20 C with acceleration of 9, deceleration of 9, and resuspending in fresh DMEM (Gibco) and 10% Heat Inactivated Fetal Bovine Serum (Atlanta Bio) and Penicillin/Streptomycin containing GM-CSF. Resuspended cells were seeded back onto 10 cm tissue culture plates and incubated at 37° C., 5% CO2. Differentiated macrophages were used for subsequent experiments.
Primary human PMBC derived macrophages were seeded on day 0 at 3.0E4 cells per well in 96-well microplates (ThermoFisher) in Dulbecco's Modified Eagle Medium (DMEM) (Gibco) supplemented with penicillin-streptomycin (Hyclone) and 10% heat inactivated fetal bovine serum (HI-FBS) (Atlanta Bio) and incubated overnight at 37° C., 5% CO2. On day 1, cells were washed once with 150 uL per well DPBS (Gibco) and treated with 75 uL of: • a. […]
For orientation: In an ELISA, binding on a coated surface is turned into a signal by an enzyme label.

Regarding `N=C(N)NCCC[C@H](N)C(=O)O` [Arginine], the “TNFa Measurements Mean (baseline subtracted)” value (shortened to “TNFa Measurements Mean”) runs as follows: (Donor 1, Conc. 109 μM (baseline)) 0; (Donor 1, Conc. 1088 μM) −24.33; (Donor 1, Conc. 2720 μM) 5.12; (Donor 1, Conc. 5440 μM) 62.06; (Donor 2, Conc. 109 μM (baseline)) 1.42E−14; (Donor 2, Conc. 1088 μM) −12.7222. Also, the “TNFa Measurements Mean” value (Donor 2, Conc. 2720 μM) is −3.763; the “TNFa Measurements Mean” value (Donor 2, Conc. 5440 μM) is recorded as −0.5738; the “TNFa Measurements Mean” value (Donor 3, Conc. 109 μM (baseline)) came to 3.55E−15; the “TNFa Measurements Mean” value (Donor 3, Conc. 1088 μM) was 3.131; the “TNFa Measurements Mean” value (Donor 3, Conc. 2720 μM) is given as −0.9669; the “TNFa Measurements Mean” value (Donor 3, Conc. 5440 μM) was −1.767.
Regarding `NC(=O)CC[C@H](N)C(=O)O` [Glutamine], the “effect on LPS-induced TNFa secretion” value is recorded as “increased” (Donor 2) and “increased” (Donor 3).
For `CC(=O)N[C@@H](CS)C(=O)O` [N-Acetyl Cysteine, N-acetylcysteine], the “effect on LPS-induced TNFa secretion” value (Donor 1) is “significantly reduced”, the “effect on LPS-induced TNFa secretion” value (Donor 2) is “significantly reduced” and the “effect on LPS-induced TNFa secretion” value (Donor 3) is “significantly reduced”.
